Test results reported in patent publication US4244947A, “Carba decapeptide derivatives of [TYR^6 ]-somatostatin” (Ayerst McKenna and Harrison Inc., priority 1979, dated 1981).

What was measured:
Type in all cases: in vivo, rat
[1] = test system: arginine stimulated glucagon secretion; test: arginine stimulated glucagon secretion in anaesthetized fasted rats (plasma IRG); settings: for ΔIRG, mean incremental change of plasma IRG from level at 0 min to level at 30 min: mean ± SEM
Description: (§1) The in vivo activity of the peptide of formula I is established by subjecting the peptide of formula I, in which X is (CH2)2 as a representative peptide of this invention, to the following standard test procedures.
(§2) Male Sprague Dawley rats (200±10 gm) body weight are used throughout these studies. They are maintained on an ad libitum diet of Purina Lab Chow and tap water until 24 hr before the studies are carried out. In the 24 hr period prior to use, the animals are fasted, but have unlimited access to tap water. All studies are conducted on sodium pentobarbital, sold under the trademark Nembutal, (Abbott Labs, Montreal), 60 mg/kg, ip, anaesthetized rats.
(§3) In studies where both insulin and glucagon secretion are investigated, arginine (arginine-HCl in 0.9% aqueous sodium chloride, pH 7.4, 200 mg/100 gm rat, Nutritional Biochemicals, Cleveland) is infused into an exposed jugular vein (2.0 ml/30 min).
(§4) The peptide of formula I or somatostatin at various concentrations is infused simultaneously with the arginine or glucose stimulus, with the aid of a butterfly infusion set (23 guage) into the test animals. The effect of the vehicle on the release of the hormones is determined by infusing the saline diluent into selected rats.
(§5) The blood samples are discharged into chilled (4° C.) glass test tubes, containing aprotinin, sold under the trademark Trasylol, (Boehringer Ingelheim, Montreal), 500 KIU/ml whole blood, and plasma samples were collected after centrifugation (4° C., 3000 rpm for 30 min). The plasma samples were stored at -20° until assayed for immuno reactive glucagon (IRG) using antiserum 30 K and for immuno reactive insulin (IRI) by the methods described by W. Lippmann and M. Kobric, Horm. Metab. Res., 10, 280 (1978).
(§6) All results are expressed as the mean ±SEM of the response. Insulin and glucagon responses obtained in the arginine treated groups are derived by subtracting the basal hormone level from the level at 30 min, and are expressed in Tables I, II and III as ΔIRG (pg/ml) and ΔIRI/(μU/ml), for glucagon and insulin, respectively. Insulin results obtained from the glucose treated animals are in absolute hormone level at the termination of the infusion.
(§7) Wilcoxon's two sample test for unpaired observations, as described in "Statistical Methods", G. W. Snedecor and W. G. Cochran, ed., sixth edition, the Iowa State University Press, Ames, Iowa, 1973, pp 130 and 131, is used to determine the significance of the peptide+arginine or peptide+glucose versus the responses due to arginine or glucose alone. In selected instances, parallel dose-response line assay by analysis of variance, as described in "Statistical Method in Biological Assay", D. J. Finney, ed., second edition, Hafner Publishing Company, New York, 1964, is used to determine the relative potency of the 2 peptides in the bioassays. A p≤0.05 is deemed to be significant.

[2] = test system: arginine stimulated insulin secretion; test: arginine stimulated insulin secretion in anaesthetized fasted rats (plasma IRI); settings: for ΔIRI, mean incremental change of IRI from basal: infused with arginine, 30 min, mean ± SEM
Description: as §1, §2, §3, §4, §5, §6, §7

[3] = test system: glucose stimulated insulin secretion; test: glucose stimulated insulin secretion in anaesthetized fasted rats (plasma IRI); settings: for IRI/ml, level observed at 30 min: absolute level, mean ± SEM
Description: as §1, §2
In studies where only insulin secretion is stimulated, glucose in 0.9% aqueous sodium chloride (British Drug House, Poole, England) is infused into an exposed jugular vein (100 mg/100 gm, in a volume of 2.0 ml for 30 min).
as §4, §5, §6, §7

## C[C@H](N)C(=O)NCC(=O)N[C@H]1CSSC[C@@H](C(=O)O)NC(=O)[C@H](CO)NC(=O)[C@H]([C@@H](C)O)NC(=O)[C@H](Cc2ccccc2)NC(=O)[C@H]([C@@H](C)O)NC(=O)[C@H](CCCCN)NC(=O)[C@H](Cc2c[nH]c3ccccc23)NC(=O)[C@H](Cc2ccccc2)NC(=O)[C@H](Cc2ccccc2)NC(=O)[C@H](CC(N)=O)NC(=O)[C@H](CCCCN)NC1=O [somatostatin]
[1]; Study A, 0.3 μg peptide/100 gm rat infused for 30 min with arginine
  ΔIRG, mean incremental change of plasma IRG from level at 0 min to level at 30 min: 157.2 ± 35.9 pg/mL
[1]; Study A, 1.0 μg peptide/100 gm rat infused for 30 min with arginine
  ΔIRG, mean incremental change of plasma IRG from level at 0 min to level at 30 min: 72.7 ± 19.0 pg/mL
[1]; Study A, 3.0 μg peptide/100 gm rat infused for 30 min with arginine
  ΔIRG, mean incremental change of plasma IRG from level at 0 min to level at 30 min: 102.5 ± 25.8 pg/mL
[1]; Study A, 30.0 μg peptide/100 gm rat infused for 30 min with arginine
  ΔIRG, mean incremental change of plasma IRG from level at 0 min to level at 30 min: 90.2 ± 38.4 pg/mL
[1]; Study B, 0.03 μg peptide/100 gm rat infused for 30 min with arginine
  ΔIRG, mean incremental change of plasma IRG from level at 0 min to level at 30 min: 211.0 ± 23.1 pg/mL
[1]; Study B, 0.3 μg peptide/100 gm rat infused for 30 min with arginine
  ΔIRG, mean incremental change of plasma IRG from level at 0 min to level at 30 min: 149.2 ± 29.9 pg/mL
[1]; Study B, 3.0 μg peptide/100 gm rat infused for 30 min with arginine
  ΔIRG, mean incremental change of plasma IRG from level at 0 min to level at 30 min: 69.3 ± 22.2 pg/mL
[1]; Study B, 30.0 μg peptide/100 gm rat infused for 30 min with arginine
  ΔIRG, mean incremental change of plasma IRG from level at 0 min to level at 30 min: 69.7 ± 8.4 pg/mL
[1]; arginine stimulated, summary of Table II
  suppression of IRG secretion, comparison: suppresses the IRG secretion about equally
[2]; Study A, 0.3 μg peptide/100 gm body weight rat
  ΔIRI, mean incremental change of IRI from basal: 73.8 ± 18.5 μU/ml
[2]; Study A, 1.0 μg peptide/100 gm body weight rat
  ΔIRI, mean incremental change of IRI from basal: 43.0 ± 22.6 μU/ml
[2]; Study A, 3.0 μg peptide/100 gm body weight rat
  ΔIRI, mean incremental change of IRI from basal: 40.0 ± 6.6 μU/ml
[2]; Study A, 30.0 μg peptide/100 gm body weight rat
  ΔIRI, mean incremental change of IRI from basal: 23.2 ± 12.5 μU/ml
[2]; Study B, 0.03 μg peptide/100 gm body weight rat
  ΔIRI, mean incremental change of IRI from basal: 88.3 ± 9.1 μU/ml
[2]; Study B, 0.3 μg peptide/100 gm body weight rat
  ΔIRI, mean incremental change of IRI from basal: 76.8 ± 5.2 μU/ml
[2]; Study B, 3.0 μg peptide/100 gm body weight rat
  ΔIRI, mean incremental change of IRI from basal: 32.2 ± 3.5 μU/ml
[2]; Study B, 30.0 μg peptide/100 gm body weight rat
  ΔIRI, mean incremental change of IRI from basal: 35.5 ± 7.8 μU/ml
[2]; Study C, 10.0 μg peptide/100 gm body weight rat
  ΔIRI, mean incremental change of IRI from basal: 52.8 ± 9.3 μU/ml
[2]; Study C, 100.0 μg peptide/100 gm body weight rat
  ΔIRI, mean incremental change of IRI from basal: 25.5 ± 8.1 μU/ml
[2]; arginine stimulated, summary of Table I
  suppression of IRI, comparison of effective dose: suppresses IRI at a lower dose than does the peptide of formula I in which X is (CH2)2
[3]; Study A, 10 μg peptide/100 gm rat infused for 30 min with glucose
  IRI/ml, level observed at 30 min: 27.2 ± 4.7 μU/ml
[3]; Study A, 100 μg peptide/100 gm rat infused for 30 min with glucose
  IRI/ml, level observed at 30 min: 12.3 ± 3.9 μU/ml
[3]; Study B, 10 μg peptide/100 gm rat infused for 30 min with glucose
  IRI/ml, level observed at 30 min: 40.3 ± 7.7 μU/ml
[3]; Study B, 30 μg peptide/100 gm rat infused for 30 min with glucose
  IRI/ml, level observed at 30 min: 17.0 ± 7.5 μU/ml
[3]; Study B, 100 μg peptide/100 gm rat infused for 30 min with glucose
  IRI/ml, level observed at 30 min: 6.2 ± 1.9 μU/ml
[3]; glucose stimulated, summary of Table III
  relative potency in suppressing IRI secretion: significantly more potent than the peptide of formula I in which X is (CH2)2
